Laboratory results: paper PMC8305768, “Design, Synthesis and Antiparasitic Evaluation of Click Phospholipids” (Molecules, 2021)
Where a name gives a salt, the structure may show the parent alone.

Experiments:
[1] = test system: T. cruzi Y strain intracellular amastigotes; assay: Activity against T. cruzi Y strain intracellular amastigotes (HG39 cell-line, parasite load); assay type: cell-based; settings: Trypanosoma cruzi, read-out: Parassite Load Reduction (%)
Protocol: T. cruzi epimastigotes (Y strain) were obtained by axenic cultivation in the LIT medium, supplemented with 10% FBS (Cultilab, São Paulo, Brazil). Cultures were maintained at […] for 4–5 days until they reached the log growth phase. New cultures were made every 4 days from the initial inoculum of 2 × 10^6 parasites/mL. T. cruzi trypomastigotes (Y strain) were maintained in culture by the infection of LLC-MK2 (ATTC-CCL7) epithelial cells. This cell line was cultured in […] tissue culture bottles (TPP) in RPMI 1640 medium (Gibco), (Thermo Fischer Scientific, Carlsbad, CA, USA) supplemented with 10% FBS (Gibco) (Thermo Fischer Scientific, Carlsbad, CA, USA). Cultures were maintained at 37 °C under 5% CO2 atmosphere, and RPMI 1640 medium and SFB were exchanged every 48 h. After confluence, the cultures were treated with 1 mL of a mixture of trypsin and versene (Sigma, São Paulo, Brazil) (0.2 and 0.002%, respectively). After 24 h, a subconfluence culture was infected with the trypomastigotes in the approximate proportion of 10:1 parasites/cell. From five to seven days post infection, the trypomastigote stage was obtained from the culture supernatant. Alternatively (Figure 2), T. cruzi strain Y was maintained as previously described.

[2] = test system: A549 cells; assay: Cytotoxicity assay A549 (CellTiter-Glo); assay type: cell-based, human; settings: compounds 10 μM; miltefosine 10 μM or 1 μM
Source text: Early ADMET profiling: The early ADMET profiling of the new derivatives involved a group of assays widely used in drug development as part of the preclinical in vitro toxicity studies. In particular our panel included hERG inhibition, five cytochromes P450 (CYP1A2, CYP2C9, CYP2C19, CYP2D6 and CYP3A4), two cell-lines (A549, epithelial human lung adenocarcinoma, WI38 and foetal lung fibroblasts), Aurora B kinase and mitochondrial toxicity, in addition to the parasite relevant toxicity against THP1 macrophages. The compounds were tested at 10 μΜ, whilst the miltefosine control was tested at 10 μΜ or 1 μM. The toxicity of the new click phospholipids is depicted in Figure 3 in a traffic light format (from red through yellow to green for decreasing ADMET liabilities).
Cytotoxicity assay: A549 cells and WI-38 cells were grown on surface-modified T175 cell culture flasks in Dulbecco’s modified Eagle medium with 10% foetal calf serum (FCS), streptomycin (100 μg/mL) and 100 U/mL penicillin G. At about 80% confluency, cells were washed, trypsinized, resuspended and counted in RPMI-1640 medium before seeding (in triplicate) into white 384-well microtiter plates (20 μL) at 500 cells/well and incubated at 37 °C in the presence of 5% CO2 for 24 h. A total of 20 μL/well of CellTiter-Glo (CTG) reagent (Promega Corp., Madison, WI, USA) was added to each well, and plates were read using an EnVision Multilabel 2103 Reader after a 10-min incubation in the dark. Dose–response assays for compounds made use of 11-point curves. Each test compound (200 nL of 10 mM top concentration in 100% v/v DMSO) was added to cells seeded in polystyrene 384-well cell culture microtiter plates using the Echo 550 Liquid Handler and read after 24 h of incubation at 37 °C in the presence of 5% CO2 using CTG as described above. The compounds/positive control (paclitaxel with final concentration of 10 μM and 1% v/v DMSO) and no compound (final 1% v/v DMSO) were added into the 384-well plates (200 nL/well; 1% v/v DMSO) using the Echo 550 Liquid Handler. The raw luminescence signal of each sample was converted into the percentage of cell growth.

[3] = test system: mitochondria of 786-0 cells; assay: Mitochondrial toxicity assay (MitoTracker Red CMXRos, 786-0 cells); assay type: cell-based; settings: compounds 10 μM, miltefosine 10 μM or 1 μM
Protocol: Mitochondrial toxicity assay: This assay made use of the MitoTracker Red CMXRos dye (Thermo Fischer Scientific, Waltham, MA, USA), which stains the mitochondria in live cells and its accumulation is dependent on the presence of a membrane potential. The renal carcinoma 786-0 cell line was used for mitochondrial toxicity screening. Cells were harvested from a 75 cm^2 flask at 80% confluency by washing once with 5 mL of rt PBS and incubating with 1 mL of 0.05% v/v trypsin/0.02% v/v EDTA for 3 min. Cells were suspended in 10 mL of prewarmed cell culture media (RPMI-1 640 supplemented with 10% v/v FCS, 100 U/mL penicillin and 100 μg/mL streptomycin) and counted using a Scepter (Merck Millipore, Darmstadt, Germany). The 786-0 cells were diluted to 75,000 cells/mL and 20 μL of this suspension added to each well of a 384-well plate. Cells were incubated for 36 h at 37 °C and 5% CO2, and compounds were added using a predilution plate. The positive control was valinomycin at a final concentration of 1 μM, with the negative control being DMSO at the same concentration. Ten microliters of compounds and controls were added to cells and incubated for 6 h at 37 °C and 5% CO2 in a humidity controlled atmosphere. After incubation, 10 μL of a 200 nM solution of MitoTracker Red CMXRos in prewarmed cell culture media was added to each well, and the 786-0 cells were incubated for an additional 45 min at 37 °C and 5% CO2. MitoTracker Red CMXRos uptake was measured using an Opera Imaging System. To facilitate automatic image analysis, the layout containing the compound area and the valinomycin and DMSO control areas were created and stored. A sublayout of five evenly dispersed fields per well were used. These settings also included a measurement height of 1 μm, which was stored in an exposure file format. By using the stored settings and files, an automated run was repeatedly created and executed. The images were transferred to a file server and uploaded into Columbus 2.4.0 (PerkinElmer, Waltham, MA. USA) using the built-in helper function and analysed therein.

SMILES | inhibition of growth at 10 µM [1] | % cell growth ± SD at 10 μΜ A549 [2] | % toxicity ± SD at 10 μΜ Mitochondria [3]
CCCCCc1cn(CCCCCCCCCCCOP(=O)([O-])OCC[N+](C)(C)C)nn1 [Compound 25, 11-(4-pentyl-1H-1,2,3-triazol-1-yl)undecyl (2-(trimethylammonio)ethyl) phosphate inner salt] | 66.2% | 114.88% | 11.05%
C[N+](C)(C)CCOP(=O)([O-])OCCCCCCCCCCCn1cc(CC2CCCC2)nn1 [Compound 28, 11-(4-(cyclopentylmethyl)-1H-1,2,3-triazol-1-yl)undecyl (2-(trimethylammo nio)ethyl) phosphate inner salt] | 58.3% | 121.51% | 8.99%
C[N+](C)(C)CCOP(=O)([O-])OCCCCCCCCCCCn1cc(CC2CCCCC2)nn1 [Compound 29, 11-(4-(cyclohexylmethyl)-1H-1,2,3-triazol-1-yl)undecyl (2-(trimethylammonio)ethyl) phosphate inner salt] | 69.9% | 120.63% | 1.08%
C[N+](C)(C)CCOP(=O)([O-])OCCCCCn1cc(CCCCCCCCNC(=O)OCc2ccccc2)nn1 [Compound 31, 5-(4-(8-(((benzyloxy)carbonyl)amino)octyl)-1H-1,2,3-triazol-1-yl)pentyl (2-(trimethylammonio)ethyl) phosphate inner salt] | 0% | 108.64% | 5.07%
C[N+](C)(C)CCOP(=O)([O-])OCCCCCCCCCCCn1cc(CCCCCCCCNC(=O)OCc2ccccc2)nn1 [Compound 32, 11-(4-(8-(((benzyloxy)carbonyl)amino)octyl)-1H-1,2,3-triazol-1-yl)undecyl (2-(trimethylammonio)ethyl) phosphate inner salt] | 0% |  | 
C[N+](C)(C)CCCOP(=O)([O-])OCCCCCCCCCCCn1cc(CC2CCCCC2)nn1 [Compound 33, 11-(4-(cyclohexylmethyl)-1H-1,2,3-triazol-1-yl)undecyl (3-(trimethylammonio)propyl) phosphate inner salt] | 0% | 114.14% | -1 ± 4.35%
C[N+](C)(C)CCOP(=O)([O-])OCCCCCCCCCCCn1cc(CCCCCCCCC(=O)O)nn1 [Compound 34, 11-(4-(8-carboxyoctyl)-1H-1,2,3-triazol-1-yl)undecyl (2-(trimethylammonio)ethyl) phosphate inner salt] | 0% |  | 
C[N+](C)(C)CCOP(=O)([O-])OCCCCCn1cc(CCCCCCCCN)nn1 [Compound 35, 5-(4-(8-aminooctyl)-1H-1,2,3-triazol-1-yl)pentyl (2-(trimethylammonio)ethyl) phosphate inner salt] | 0% | 100.96% | 6.58%
CCCCCCCCCCc1cc(CCCCCCCCCCOP(=O)([O-])OCC[N+](C)(C)C)no1 [Compound 41, 10-(5-decylisoxazol-3-yl)decyl (2-(trimethylammonio)ethyl) phosphate inner salt] | 63.3% | 85.15% | 2.99%
CCCCCCCCc1noc(CCCCCOP(=O)([O-])OCC[N+](C)(C)C)n1 [Compound 53, 5-(3-octyl-1,2,4-oxadiazol-5-yl)pentyl (2-(trimethylammonio)ethyl) phosphate inner salt] | 44.5% | 87.74% | –1.08%
CCCCCCCCc1noc(CCCCCCCCCCOP(=O)([O-])OCC[N+](C)(C)C)n1 [Compound 54, 10-(3-octyl-1,2,4-oxadiazol-5-yl)decyl (2-(trimethylammonio)ethyl) phosphate inner salt] | 90.5% | 85.82% | 8.56%
CCCCCCCc1nnc(CCCCCCCCCCOP(=O)([O-])OCC[N+](C)(C)C)o1 [Compound 65, 10-(5-heptyl-1,3,4-oxadiazol-2-yl)decyl (2-(trimethylammonio)ethyl) phosphate inner salt] | 92.2% | 90.48% | 40.25%
CCCCCCCCCCCc1nnc(CCCCCCCCCCOP(=O)([O-])OCC[N+](C)(C)C)o1 [Compound 66, 2-(trimethylammonio)ethyl (10-(5-undecyl-1,3,4-oxadiazol-2-yl)decyl) phosphate inner salt] | 69.7% | 90.83% | 19.78%
CCCCCCCCCCCCCCCCOP(=O)([O-])OCC[N+](C)(C)C [Miltefosine, hexadecylphosphocholine, reference compound] | 71.9% | 95.80% | 3.99%
